For data set [1], the system named is A549 human lung epithelial carcinoma cell line. The data set can be described thus: A549 cytotoxicity assay (resazurin / alamar blue). The format is cell-based. Conditions: at concentrations up to 100 μM (1, 50, 100 μM), 24 h. Here is the method: Establishing the safety profile of new chemical entities is paramount for further drug development. […] The assay employed resazurin reduction, a sensitive fluorometric assay widely used as a standard methodology in drug discovery research.[35] This assay relies on the ability of living cells to reduce resazurin to the fluorescent compound, resorufin, which indicates the rate of the metabolic activity as a means to quantify cell viability.
Cell viability was assessed according to Nimesh et al.[51] on A549 adenocarcinomic human alveolar basal epithelial cell line. The viability of the A549 cell line was assessed after overnight incubation with three concentrations (1, 50, and 100 μM) of the corresponding compound using alamar blue (resazurin) dye. Cells were maintained in the Dulbecco’s Modified Essential Medium (DMEM) supplemented with 10% fetal bovine serum (FBS) and 1% penicillin–streptomycin–neomycin (PSN). After that, 100 μL of suspended cells with a final concentration (1 × 10^4 cells/wall) were seeded in 96-well plates with 100 μL of (1, 50, 100 μM) concentrations of the tested compound was dispensed in sextuplicate. […] The plates were further incubated for 4–6 h and the intensity of the fluorescence was measured using an excitation light of 510 nm and measuring the fluorescence output at 590 nm. The cell viability in each well was normalized to the DMSO reading.
(The colour change of resazurin is a common sign of viable cells or microbes.)

The subject of data set [2] is PqsR (PqsR-controlled pqsA promoter, PA14 mCTX::PpqsA-lux). Put plainly: Bioluminescent reporter assay, PA14 mCTX::PpqsA-lux. The data set is classed as cell-based. The conditions noted are these: Pseudomonas aeruginosa, PA14, read-out: IC50 (μM) PA14 mCTX::PpqsA-lux. Here is the method: (§1) An extensive SAR was performed on 6a to investigate the role of substitutions around various positions of the benzimidazole ring (groups R1–R3) as well as the aromatic tail (groups R4–R5) to fine-tune the potency of this series (6a–u) (Table 2). The activity of these analogues to inhibit the pqs QS system was evaluated in the PAO1-L and PA14 strains (that belong to the two major P. aeruginosa genomic lineages), both harboring a chromosomally integrated mCTX::PpqsA-lux transcriptional fusion to report for the activity of pqs system. Successful pharmacological blocking of AQ signal reception at the level of PqsR leads to a reduced transcription of the pqsA-lux genes and ultimately reduction in the luminescence readout.
(§2) Strains PA14 mCTX::PpqsA-lux and PAO1-L mCTX::PpqsA-lux were used to detect PqsR-controlled activation of the pqsA promoter, as previously described,[45] and the assay was performed according to a published method.[46] For initial screening, the compounds were tested at a concentration of 10 μM, which was prepared from a 10 mM stock, in DMSO.
In general terms: Reporter assays use an easily measured gene product as a stand-in for the process of interest.

The test system of data set [3] is PqsR (PqsR-controlled pqsA promoter, PAO1-L mCTX::PpqsA-lux). The data set can be described thus: Bioluminescent reporter assay, PAO1-L mCTX::PpqsA-lux. The format is cell-based, Pseudomonas aeruginosa. The conditions noted are these: Pseudomonas aeruginosa, PAO1, read-out: IC50 (μM) PAO1-L mCTX::PpqsA-lux. As for the experimental part: as §1, §2
For data set [4] the test system is unchanged. On the set-up: method as in PMID 34503335. The conditions noted are these: previously reported inhibitor; read-out: IC50 in P. aeruginosa PAO1-L; cited from earlier work.

Results on two compounds are retold here after PMC10823468, “Design, Synthesis, and Evaluation of New 1H-Benzo[d]imidazole Based PqsR Inhibitors as Adjuvant Therapy for Pseudomonas aeruginosa Infections” (Journal of Medicinal Chemistry, 2024).

Like-named read-outs stand apart in the source and are kept apart here.

As usually defined, the IC50 is the concentration that gives 50% inhibition. With `CC(C)n1c(NCC(O)COc2ccc(CC#N)cc2F)nc2ccc(Cl)cc21` (stereo not shown) [Compound 6n, 2-(4-(3-((6-Chloro-1-isopropyl-1H-benzo[d]imidazol-2-yl)amino)-2-hydroxypropoxy)-3-fluorophenyl) Acetonitrile], the “cytotoxicity for A549 cells” value in data set [1] is listed as “not cytotoxic”. Further, the IC50 in data set [2] is 0.11 ± 0.01 µM; in data set [3] it was 0.05 ± 0.02 µM.

In the case of `N#CCc1ccc(OCC(O)Cn2cnc3ccc(Cl)cc3c2=O)cc1` (stereo not shown) [Compound 1], the IC50 in data set [4] was 3200 nM.
